Experimental data as given in article PMC12207360, “Hyperpolarization Modulation of the T‐Type hCav3.2 Channel by Human Synenkephalin [1–53], a Shrew Neurotoxin Analogue without Paralytic Effects” (Angewandte Chemie (International Ed. in English), 2025).
Marks after values point to notes of the source that are not given here.

Experiments:
[1] = molecular target: human T-type voltage-gated calcium channel hCav3.2 (human) (UniProt O95180)
[2] = system: mealworms (larva of Zophobas atratus); settings: cited from earlier work
[3] = system: human T-type voltage-gated calcium channel (hCav3.2); settings: 0.84 µM; synthetic BPP2; cited from earlier work
Description: (§1) The short‐tailed shrew Blarina brevicauda is one of the rare venomous mammals that has potent neurotoxins in its saliva and effectively captures prey such as earthworms and small insects.^[ [25] ^] Since Blarina shrew venom causes severe pain in those bitten,^[ [26] ^] it was predicted that the venom targets specific ion channels related to pain and neurotransmission.^[ [27] ^] Recently, we isolated and characterized Blarina paralytic peptides (BPPs) 1 and 2 as major active substances against mealworms (Figure 1a).^[ [28] ^] BPP2 was chemically synthesized based on the gene sequence of the pre ...

hCav2.2 = settings: synthetic BPP2; cited from earlier work
Description: as §1

trypsin = settings: core N-terminal 1–41 part of BPP2; cited from earlier work
Method: (§2) To determine the connectivity of disulfide bonds in synthetic 2, enzymatic digestion and subsequent fragment peptide analysis were performed. […] However, due to high proteolytic stability, analysis of these degraded products provid ...

[4] = system: glutamyl endopeptidase (Glu-C); settings: core N-terminal 1–41 part of BPP2; cited from earlier work
Method: as §2

[5] = ColabFold-predicted structure, cited from earlier work
Description: To compare the structural properties of hSYN and BPP2, we next examined their three‐dimensional structures using ColabFold^[ [64] ^] (a Google Colab version of AlphaFold2^[ [65] ^] using MMSeq2^[ [66] ^]). […] The four helical structures of hSYN were hi ... || Figure 3 Proposed three‐dimensional structures of hSYN and BPP2. a) ColabFold‐predicted structure of hSYN. Disulfide bonds are highlighted in orange sticks. b) Proposed helices in the calculated structures. c) CD spectra of hSYN. Obs: Synthetic 2 (20 µM) was measured in 50 mM potassium phosphate (pH 7.0) at 25 °C. Calc: The ColabFold‐predicted structure was analyzed using the PDBMD2CD server. d) Calculated helicities (%) of each model by three methods based on the CD spectra. e) Superimposed structures of hSYN (blue white) and BPP2 (pale green). Key residues that interact between the helixes a ...

UniProt O95180, sequence (O95180 whole entry): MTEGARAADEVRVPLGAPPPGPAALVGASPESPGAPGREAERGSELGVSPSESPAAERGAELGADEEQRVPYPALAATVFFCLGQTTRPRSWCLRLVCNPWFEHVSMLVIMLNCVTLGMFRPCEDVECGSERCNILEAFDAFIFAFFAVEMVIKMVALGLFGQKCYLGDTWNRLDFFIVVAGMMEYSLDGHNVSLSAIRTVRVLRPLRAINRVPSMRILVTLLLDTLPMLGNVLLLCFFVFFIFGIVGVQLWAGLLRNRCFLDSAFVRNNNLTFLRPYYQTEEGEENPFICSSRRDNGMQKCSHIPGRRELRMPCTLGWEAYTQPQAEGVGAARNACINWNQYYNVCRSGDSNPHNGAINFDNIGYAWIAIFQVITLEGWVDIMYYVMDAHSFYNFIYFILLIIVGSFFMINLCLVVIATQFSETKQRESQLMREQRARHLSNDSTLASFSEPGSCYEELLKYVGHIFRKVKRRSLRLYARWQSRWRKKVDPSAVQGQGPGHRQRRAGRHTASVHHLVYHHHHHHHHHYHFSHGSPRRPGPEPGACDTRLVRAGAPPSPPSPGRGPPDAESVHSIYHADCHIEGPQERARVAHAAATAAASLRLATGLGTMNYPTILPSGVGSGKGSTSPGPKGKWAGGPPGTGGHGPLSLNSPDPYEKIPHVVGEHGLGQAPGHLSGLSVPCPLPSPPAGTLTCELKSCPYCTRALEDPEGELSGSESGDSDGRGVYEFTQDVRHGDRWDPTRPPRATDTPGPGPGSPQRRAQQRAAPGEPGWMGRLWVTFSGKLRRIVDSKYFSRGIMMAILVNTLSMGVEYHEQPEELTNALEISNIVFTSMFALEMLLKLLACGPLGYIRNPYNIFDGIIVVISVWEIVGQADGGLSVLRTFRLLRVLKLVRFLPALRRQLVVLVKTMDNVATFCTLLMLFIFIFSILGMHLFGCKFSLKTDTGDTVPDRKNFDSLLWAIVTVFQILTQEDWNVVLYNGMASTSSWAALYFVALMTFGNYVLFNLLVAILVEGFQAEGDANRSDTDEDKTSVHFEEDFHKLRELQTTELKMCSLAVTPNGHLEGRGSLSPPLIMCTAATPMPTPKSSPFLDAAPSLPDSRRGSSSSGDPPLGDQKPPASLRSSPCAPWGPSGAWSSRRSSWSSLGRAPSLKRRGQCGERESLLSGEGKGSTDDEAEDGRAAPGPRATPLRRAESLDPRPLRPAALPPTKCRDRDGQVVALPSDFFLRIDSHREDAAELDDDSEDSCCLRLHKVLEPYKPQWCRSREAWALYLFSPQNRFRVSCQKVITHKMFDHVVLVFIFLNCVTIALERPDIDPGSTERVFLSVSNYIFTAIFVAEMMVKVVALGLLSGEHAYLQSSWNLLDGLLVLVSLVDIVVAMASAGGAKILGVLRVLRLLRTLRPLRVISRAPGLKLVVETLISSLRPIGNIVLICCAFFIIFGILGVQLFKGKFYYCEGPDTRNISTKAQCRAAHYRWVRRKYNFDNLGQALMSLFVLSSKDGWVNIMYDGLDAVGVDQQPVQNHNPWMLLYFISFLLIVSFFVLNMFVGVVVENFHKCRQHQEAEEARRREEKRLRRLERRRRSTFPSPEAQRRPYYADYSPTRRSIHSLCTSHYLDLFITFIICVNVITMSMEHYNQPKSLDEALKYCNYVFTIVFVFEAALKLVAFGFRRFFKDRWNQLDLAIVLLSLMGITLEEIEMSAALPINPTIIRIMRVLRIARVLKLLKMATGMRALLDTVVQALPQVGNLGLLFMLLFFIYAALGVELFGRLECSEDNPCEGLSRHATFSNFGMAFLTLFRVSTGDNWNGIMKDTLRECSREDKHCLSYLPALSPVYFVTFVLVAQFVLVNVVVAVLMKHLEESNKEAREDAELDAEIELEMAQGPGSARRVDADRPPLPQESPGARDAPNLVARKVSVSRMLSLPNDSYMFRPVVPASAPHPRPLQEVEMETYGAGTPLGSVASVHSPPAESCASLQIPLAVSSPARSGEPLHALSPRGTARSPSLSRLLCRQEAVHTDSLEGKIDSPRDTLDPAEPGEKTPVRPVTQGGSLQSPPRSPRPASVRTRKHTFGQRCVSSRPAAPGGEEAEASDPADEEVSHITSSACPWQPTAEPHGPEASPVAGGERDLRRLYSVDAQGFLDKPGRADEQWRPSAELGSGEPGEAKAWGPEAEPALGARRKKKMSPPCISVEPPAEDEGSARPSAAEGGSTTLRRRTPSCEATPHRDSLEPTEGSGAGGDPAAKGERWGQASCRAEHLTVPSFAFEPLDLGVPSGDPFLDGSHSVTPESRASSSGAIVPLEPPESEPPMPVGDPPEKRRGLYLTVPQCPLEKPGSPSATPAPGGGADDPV

Substance	hyperpolarization shift of hCav3.2 activation at 0.74 µM hSYN (2); whole-cell patch clamp on HEK293T cells expressing hCav3.2, n = 5 [1]	Paralyzed/total numbers ([2]; i.p., 5.6 µg/g bodyweight)	paralytic effect on mealworms ([2]; synthetic BPP2, intraperitoneal, 5.6 µg g−1 body weight, immediately after administration)	hyperpolarization shift in the activation of hCav3.2 [3]	effect on hCav2.2 (hCav2.2)	proteolytic stability toward trypsin (trypsin)	proteolytic stability toward Glu-C [4]	Helicity, calculated, BestSel ([5]; BestSel server)	Helicity, calculated, K2D3 ([5]; K2D3 server)	Helicity, calculated, PDBMD2CD ([5]; PDBMD2CD server)
human synenkephalin N-terminal part [1–53] (hSYN), Type II disulfide bond connectivity, synthetic compound 2 (peptide)	-15 mV									
Blarina paralytic peptide 2 [BPP2]		3/3 ^b)	reliably induces paralysis and convulsions in mealworms	–11 mV	no significant effect on hCav2.2	highly stable	highly stable	48.9%	54.9%	55.7%
